Assays:
asthmatic mice = assay: Ovalbumin-induced asthma mouse model (BALF leukocyte counts, lung inflammation); format: in vivo, BABL/c mice; conditions: for percentage of eosinophils in BALF / percentage of macrophages in BALF / percentage of neutrophils in BALF / total number of leukocytes in BALF: intraperitoneal injection; for percentage of eosinophils in BALF / percentage of macrophages in BALF / percentage of neutrophils in BALF / total number of leukocytes in BALF / eosinophils in BALF: vs model control
Excerpt: 4. Effects of Compounds on Ovalbumin-Induced Asthma in Mouse and Rat Models
SPF-grade SD male rats (purchased from Zhejiang Academy of Medical Sciences, license number SCXK (Zhejiang) 2019-0002) with a body weight of 160-180 g; and SPF-grade female BABL/c mice (purchased from Zhejiang Weitong Lihua Experimental Animals Technology Co., Ltd., license number SCXK (Zhejiang) 2019-0001) with a body weight of 16-18 g were used. The above animals were raised by the Experimental Animal Center of Zhejiang Academy of Traditional Chinese Medicine.
Formulation of compound solution: compound was vortexed in a solvent system, dissolved by ultrasound, and prepared into a solution at a corresponding concentration, which was prepared just before use (the solvent system was composed of 5% Solutol HS 15, 5% DMSO and 90% physiological saline).
BABL/c mice or SD rats were randomly divided into: normal control group, model control group, dexamethasone group (0.72 mg/kg), and the respective test compound groups (one group for each dose), 10 mice in each group; 6 rats in each group.
Sensitization of mice: on the mornings of Day 0, Day 7, and Day 14, mice in the model control group and the respective drug administration groups were intraperitoneally injected with 0.2 ml of 10% OVA sensitizing solution (Yuanye Bio), and the normal control group was intraperitoneally injected with an equal volume of normal saline. In the afternoons of Day 7 and Day 14, mice in the model control group and the respective drug administration groups were intraperitoneally injected with 0.2 ml of 10% OVA (Sigma), and the normal control group was intraperitoneally injected with an equal volume of normal saline.
Mice: from Day 21, the normal control group and the model control group were not treated; the dexamethasone group and the respective test compound groups were intraperitoneally injected, 20 minutes before each challenge, with the corresponding drugs, injection volume: 0.1 ml/10 g, administered for 7 consecutive days; mice in the test compound-oral group were given the corresponding drugs by intragastric administration 30 minutes before the challenge; the test compound-atomization group or the dexamethasone-atomization group was given the corresponding drugs at different concentrations before challenge, 8 ml for each group, atomization for 30 minutes; the normal control group and the model control group were given no treatment. Administration was conducted for 7 consecutive days.
Mice: from Day 21, the mice in the model control group and the respective administration groups were placed in airtight containers in turn, and the challenging solution was atomized with an ultrasonic nebulizer (approximately 6-8 ml each time), twice a day, OVA challenging solution from Yuanye Shanghai was atomized in the morning, and OVA challenging solution from Sigma was atomized in the afternoon. Mice were challenged for 30 minutes per atomization, for 7 consecutive days. The normal control group was not treated. Mice in the model control group developing cyanosis of lips, accelerated breathing, unsteadiness during standing, nodding breathing, abdominal muscle cramps, etc. was deemed as a sign of success of the animal model.
24 hours after completion of the last challenge, the trachea of the mouse was exposed in front of the neck, a horizontal incision was made in the trachea with an ophthalmic scissor, and a 5 ml syringe-modified tracheal intubation needle was inserted, the left main bronchus was ligated, and the right main bronchus was intubated and tightened with surgical suture. Bronchoalveolar lavage was conducted 3 times with 0.3 ml normal saline, pumpback twice each time. The BALF was combined and collected in a 1.5 ml test tube, which was placed on ice or in a refrigerator at 4 degrees.
50 μl of the above BALF was taken, and 100 μl white blood cell counting diluent (2% iced acetic acid solution) was added thereto and mixed evenly therewith. […]

human TRPA1 = human TRPA1 (Homo sapiens (Human), UniProt O75762); assay: Inhibitory activity on human TRPA1 by conventional patch clamp assay; format: cell-based; conditions: for inhibition at 5 µM: read-out: TRPA1 % Inhibition rate (5 μM); for IC50: HEK293 human TRPA1, 100 μM cinnamaldehyde
human TRPA1, sequence (O75762 whole entry): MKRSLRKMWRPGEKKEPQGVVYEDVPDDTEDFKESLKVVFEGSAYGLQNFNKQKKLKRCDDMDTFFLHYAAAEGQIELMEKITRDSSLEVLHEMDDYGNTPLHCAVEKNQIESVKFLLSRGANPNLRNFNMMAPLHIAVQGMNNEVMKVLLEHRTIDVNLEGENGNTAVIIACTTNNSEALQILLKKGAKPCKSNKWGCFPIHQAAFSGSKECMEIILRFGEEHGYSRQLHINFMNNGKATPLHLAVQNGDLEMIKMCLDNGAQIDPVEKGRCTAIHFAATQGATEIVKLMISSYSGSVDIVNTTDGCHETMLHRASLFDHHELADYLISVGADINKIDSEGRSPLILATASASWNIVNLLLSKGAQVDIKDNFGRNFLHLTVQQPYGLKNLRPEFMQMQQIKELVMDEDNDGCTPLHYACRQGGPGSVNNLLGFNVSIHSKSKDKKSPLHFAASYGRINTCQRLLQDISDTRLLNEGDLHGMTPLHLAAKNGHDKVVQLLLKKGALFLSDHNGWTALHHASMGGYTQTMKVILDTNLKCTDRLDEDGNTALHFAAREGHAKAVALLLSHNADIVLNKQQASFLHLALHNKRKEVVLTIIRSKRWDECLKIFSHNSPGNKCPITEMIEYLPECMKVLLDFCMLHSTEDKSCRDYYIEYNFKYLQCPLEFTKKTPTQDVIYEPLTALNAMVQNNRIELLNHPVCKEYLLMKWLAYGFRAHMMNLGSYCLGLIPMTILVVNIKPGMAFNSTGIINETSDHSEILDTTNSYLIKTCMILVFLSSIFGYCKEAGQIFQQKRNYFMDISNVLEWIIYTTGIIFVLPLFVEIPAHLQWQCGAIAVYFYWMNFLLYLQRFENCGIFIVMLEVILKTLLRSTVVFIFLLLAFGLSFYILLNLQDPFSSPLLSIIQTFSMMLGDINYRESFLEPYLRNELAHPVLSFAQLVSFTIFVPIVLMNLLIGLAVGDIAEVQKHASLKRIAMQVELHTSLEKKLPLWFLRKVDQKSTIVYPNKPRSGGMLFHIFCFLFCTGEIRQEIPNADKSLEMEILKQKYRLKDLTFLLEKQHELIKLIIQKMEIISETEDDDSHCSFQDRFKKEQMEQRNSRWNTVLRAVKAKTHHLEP
Excerpt: 2. Inhibitory Activity on Human TRPA1 by Conventional Patch Clamp Assay
In order to compare the influences of different measuring methods on the inhibitory activity of compounds, a conventional patch clamp method was used to further measure the inhibitory activity of compounds 1, 11, 31, 50, and 78 on TRPA1. The principle and procedures of the conventional patch clamp assay could be found in the literature report of Chen et al [Chen et al. Pain 2011, 152(5):1165-72].
Evaluation of TRPA1 inhibitory activity of compounds was conducted using the HEK293 recombinant cell strain (Creative Biogene, NY) stably expressing human TRPA1. Cells were cultured in a DMEM/F12 (3:1, Thermo Fisher Scientific) medium (containing 5% calf serum, 2 mM glutamine and 20 mM HEPES) in an incubator at 37° C. and air humidity containing 5% CO2.
During the experiment, the adherent cells were placed in a recording room under the inverted microscope. All experiments were performed at room temperature. Each cell itself was used as a control thereof.
Test compounds at a final concentration were all prepared on the testing day and then dissolved in the extracellular fluid. The extracellular fluid was (mM): NaCl, 137; KCl, 4; CaCl2, 1.8; MgCl2, 1; HEPES, 10; glucose 10; pH 7.4 (NaOH titration). All the solutions of the test compounds and control compounds contained 0.3% DMSO.
The compounds were all perfused with a perfusion system by virtue of their own gravity. At least two cells were tested for each concentration of the compound. After the current became stable, the variation in magnitude of the current before and after the compound was used to calculate the blocking effect of the compound. 100 μM cinnamaldehyde was used as the positive control.
The cells were transferred to the perfusion tank and perfused with extracellular fluid. The intracellular fluid was: 130 mM K-aspartate; 5 mM MgCl2; 5 mM EGTA; 10 mM
HEPES; pH 7.2 (KOH titration). The intracellular fluid was stored in a small amount in a −80 degree refrigerator in batches, and thawed on the day of the experiment. The electrode was pulled with PC-10 (Narishige, Japan). Whole-cell patch clamp recording was adopted and noise was filtered at one-fifth of the sampling frequency.
The cells were clamped at 20 mV, and then depolarized to 80 mV with a square wave of 500 milliseconds to obtain the TRPA1 current (see FIG. 1).
This procedure was repeated every 3 seconds. Cells were patched in a normal extracellular fluid, current A was obtained via voltage procedure testing, and then perfusion was conducted with an extracellular fluid added with 100 μM cinnamaldehyde to activate TRPA1 current to obtain current B. After the current stabilized, elution was conducted with normal extracellular fluid and perfusion was conducted with an extracellular fluid added with 100 μM cinnamaldehyde and a compound at various concentrations to obtain current C. Finally, blocking rate of the compound was obtained according to […], see FIG. 2.
Data collection and analysis was conducted using pCLAMP 10 (Molecular Devices, Union City, CA). Current stabilization meant that the variation in the current with time was within a limited range. The magnitude of the current after stabilization was used to reflect the effect of the compound in this process.

SMILES | percentage of eosinophils in BALF (asthmatic mice; P<0.01) | percentage of macrophages in BALF (asthmatic mice; P<0.01) | percentage of neutrophils in BALF (asthmatic mice; P<0.01) | total number of leukocytes in BALF (asthmatic mice; P<0.01) | lung tissue inflammation area (asthmatic mice; oral administration, P<0.05) | eosinophils in BALF (asthmatic mice; oral administration, P<0.01) | airway inflammation score (asthmatic mice; spray inhalation, P>0.05) | lung tissue inflammation area (asthmatic mice; spray inhalation, respective dose groups, P<0.01, 0.05) | eosinophils in BALF (asthmatic mice; spray inhalation, respective dose groups, P<0.05, 0.01) | inhibition at 5 µM (human TRPA1) [%] | IC50 (human TRPA1) [nM]
N#Cc1ccc(NC2(C(=O)N3CCN(c4ccc(C(F)(F)F)cc4)CC3)CCCC2)cc1 [Compound 1, 4-((1-(4-(4-(trifluoromethyl)phenyl)piperazine-1-carbonyl)cyclopentyl)amino)benzonitrile] | decreased | increased | decreased | decreased | significantly reduced | significantly reduced | decreasing trend, but not reaching a statistical significance | reduce the lung tissue inflammation area of asthmatic mice in a dose-dependent manner | dose-dependent decrease | 99 | 56
CC(C)(C)C1CCN(C(=O)C2(Nc3ccc(C#N)cc3)CCCC2)CC1 [Compound 31, 4-((1-(4-(tert-butyl)piperidine-1-carbonyl)cyclopentyl)amino)benzonitrile] | decreased | increased | decreased | decreased |  |  |  |  |  | 117 | 98
